Assays:
[1] = tested on: Pseudomonas syringae pv. tabaci; experiment: Pseudomonas syringae pv. tabaci inoculation of Nicotiana benthamiana leaves, CFU; format: in vivo; settings: R0 plant of Nicotiana benthamiana of callus treated with probenazole
Botrytis cinerea [2] = experiment: Botrytis cinerea inoculation of Nicotiana benthamiana leaves, lesion area; format: in vivo
rice callus = experiment: Callus survival and redifferentiation under probenazole treatment
Botrytis cinerea [3] = experiment: Botrytis cinerea inoculation of tomato leaves, lesion area; format: in vivo; settings: regenerated tomato (Micro-Tom) lines, callus treated with 200 μM probenazole; vs WT
WRKY45 gene = experiment: RNA-seq of probenazole-treated rice callus (WRKY45 induction); format: cell-based, Oryza sativa cv. Nipponbare; settings: 7th day after probenazole treatment (50, 100 or 150 μM) on dedifferentiation-inducing medium
[4] = tested on: rice blast fungus (Magnaporthe grisea strain K-06); format: in vivo; settings: for hyphal elongation of rice blast fungus in the leaf sheath / blast resistance: progeny (third generation; R2) of treated lines, 150 μM (salicylic acid 1 mM), vs Nipponbare, FIG. 11B; for hyphal elongation of Magnaporthe oryzae in the leaf sheath / disease resistance: regenerated rice individuals, callus treated at 150 μM (salicylic acid 1 mM), P<0.05, FIG. 11A

| Structure (SMILES) | growth of Pseudomonas syringae pv. tabaci [1] | Botrytis cinerea resistance (Botrytis cinerea [2]; R1, self-fertilized progeny of R0, Nicotiana benthamiana) | expansion of lesions of Botrytis cinerea (Botrytis cinerea [2]; current generation (R0) of regenerated Nicotiana benthamiana, callus treated with 200 μM probenazole 7 to 21 days, vs wild type) | number of meristems formed in callus and appearance rate of regenerated plants (rice callus; compared to control not treated with probenazole) | redifferentiation from callus (rice callus; probenazole treatment in dedifferentiation or redifferentiation process) | callus survival rate (rice callus; probenazole-treated rice callus vs control callus) [%] | lesion expansion of Botrytis cinerea in tomato leaves (Botrytis cinerea [3]) | expression of the WRKY45 gene in callus (WRKY45 gene) | hyphal elongation of rice blast fungus in the leaf sheath / blast resistance [4] | hyphal elongation of Magnaporthe oryzae in the leaf sheath / disease resistance [4] |
| --- | --- | --- | --- | --- | --- | --- | --- | --- | --- | --- |
| C=CCOC1=NS(=O)(=O)c2ccccc21 [probenazole, 3-prop-2-enoxy-1,2-benzothiazole 1,1-dioxide] | markedly suppressed | Significant Botrytis cinerea resistance | significantly suppressed | no significant difference | not inhibited | 100 | significantly suppressed | induced | significant blast resistance | significant disease resistance |
| N#Cc1ccccc1NC(=O)c1snc(Cl)c1Cl [isothianil, isotianil] | – | – | – | – | – | – | – | – | significant blast resistance | significant disease resistance |
| O=C(O)c1ccccc1O [salicylic acid] | – | – | – | – | – | – | – | – | significant blast resistance | significant disease resistance |
| CSC(=O)c1cccc2nnsc12 [acibenzolar S-methyl] | – | – | – | – | – | – | – | – | significant blast resistance | significant disease resistance |
| Cc1ccc(NC(=O)c2snnc2C)cc1Cl [tiadinil] | – | – | – | – | – | – | – | – | significant blast resistance | significant disease resistance |
